Measurements taken from patent publication US20160251702A1, “Process and Kit for Predicting Antibiotic Resistance and Susceptibility of Bacteria” (priority 2015, published 2016).
Read-outs that look alike come from different tables or passages of the source.

What was measured:
Format in all cases: cell-based
Escherichia coli = assay: Disk diffusion susceptibility of the reference set of clinical E. coli isolates split by 7-SNP typing; settings: for prevalence of resistance: total E. coli study population
Description: This example illustrates setting up a reference database consisting of 2,559 random single-patient clinical E. coli isolates of primarily extra-intestinal origin, at eight international clinical microbiology laboratories. […] Conventional MLST (multi-locus sequence typing) was performed either in full using the standard scheme of 7 MLST loci (adk, fumC, gyrB, icd, mdh, purA, and recA) (Wirth et al., 2006. Sex and virulence in Escherichia coli: an evolutionary perspective. Mol, Microbiol, 60:1136-1151.) or as a combination of partial MLST and fumC/fimH typing, as described previously (Tchesnokova et al. 2013. Predictive diagnostics for Escherichia coli infections based on the clonal association of antimicrobial resistance and clinical outcome. J. Clin. Microbiol. 51:2991-2999). Some ST complexes, as identified by the eBURST v3 software, were defined operationally as a single ‘ST’ and were designated based on the ST identified as the cluster's founder (see Table 5) (Feil et al. 2004. eBURST: inferring patterns of evolutionary descent among clusters of related bacterial genotypes from multilocus sequence typing data. J. Bacteriol. 186:1518-1530).
Susceptibility to seven antibiotics was determined using a standardized disk diffusion method according to Clinical and Laboratory Standards Institute guidelines.

E. coli [1] = assay: Antibiotic resistance of the HMO reference collection of E. coli (Lookup Table); settings: Reference set isolates (1227, 2010-2013)
Description: Both septatypes/clonotypes and antimicrobial profiles were identified.
In total, 1227 E. coli isolated from the HMO (Group Health) clinical lab in 2010-2013 were analyzed. All had their clonotype type determined and resistance to antibiotics tested. Septatypes were deduced from CH types (clonotypes). Red indicates resistance >30%. Yellow: more than 15% but less than 30%. Green: less than 15%.

E. coli [2] = assay: Antibiotic resistance of E. coli isolates from the field trial (Group Health Urgent Care); settings: for overall resistance level: Field trial isolates; for Resistance rate in GH UC E. coli: field trial, Group Health Urgent Care
Description: The disclosed test kit and process was conducted on urinalysis-positive urine samples on-site at the HMO urgent care clinical laboratory. All urine samples obtained at Urgent Care facility were tested by the 7-SNP-based CLT(clonotyping) test and by a standard E. coli culturing test.
In total, 750 urinalysis-positive samples from the HMO urgent care lab were processed in CLT test and standard culturing test.
The E. coli clonotypes identified in the field study (out of 750 samples, see above) were compared to a reference collection of E. coli to (1) compare the clonotypes distribution, (2) compare the overall resistance profile, and (3) use the reference collection to predict if antibiotics can or cannot be allowed for use in each case in the field study (as a Lookup Table). Further, the prediction from (3) was compared to actual resistance of individual isolates and to clinical data regarding the prescription of antibiotics in each case. From this we can see if the implementation of the CLT test would improve the choice of antibacterial therapy.
For clone-based prediction of bacterial resistance of field study isolates we used a 15% resistance as a cutoff for rejection of an antibiotic.

E. coli [3] = assay: CH clonotypes correlated with antibiotic susceptibility profiles of urine E. coli isolates
Text: This example illustrates a high-resolution fumC/fimH (CH) clonotyping scheme for E. coli based on sequence variations within these highly-variable omnipresent genes for fumarase and fimbrial adhesin of E. coli, respectively. We correlated CH clonotypes with antibiotic susceptibility profiles among 1,600 urine E. coli isolates from clinical microbiology laboratories in Seattle (Group Health, UW, Harborview, and Children's Hospitals), Minneapolis (VA Medical Center), and Munster, Germany (University Clinic).
We next determined how knowledge of cumulative clonotype vs. overall (species) antibiogram could reduce potential ‘drug-bug’ mismatches during empirical antibiotic selection. We used the IDSA-recommended 80% susceptibility cutoff level to allow the use of specific antibiotic for each clonotype.

E. coli [4] = test system: E. coli
Description: This example illustrates implementation of clonal testing in a healthcare community microbiology laboratory. We assessed the presence of E. coli sub-strains ST131 and ST69 (n=619) E. coli positive cultures. […] The tests were conducted to identify ST69 of ST131 genes specific to each clonotype on bacterial DNA isolated from patient urine specimens using RT-PCR instrumentation.

| Compound | prevalence of resistance (Escherichia coli) [%] | overall resistance level (E. coli [1]) | overall resistance level (E. coli [2]) | Resistance rate in GH UC E. coli (E. coli [2]) [%] | Total resistant (E. coli [3]; 1,600 urine E. coli isolates) [%] | % Resistant among Allowed (E. coli [3]; isolates of clonotypes allowed for treatment) [%] | % Resistant among Rejected (E. coli [3]; isolates of clonotypes rejected for treatment) [%] | resistant (E. coli [4]; clonotype ST69) | resistant (E. coli [4]; clonotype ST131) | Resistance (E. coli [4]; study group, n=619 E. coli positive cultures) [%] | resistance in words (Escherichia coli; septatype 261 (ST69)) | resistance in words (Escherichia coli; septatype 560 (ST131-H41)) | resistance in words (Escherichia coli; septatype 561 (ST131-H30)) |
| --- | --- | --- | --- | --- | --- | --- | --- | --- | --- | --- | --- | --- | --- |
| CO/N=C(\C(=O)N[C@@H]1C(=O)N2C(C(=O)O)=C(CSc3nc(=O)c(=O)[nH]n3C)CS[C@H]12)c1csc(N)n1 [ceftriaxone] | 9 | 3.7 | 4.8 | – | – | – | – | – | – | – | – | – | – |
| O=C1CN(/N=C/c2ccc([N+](=O)[O-])o2)C(=O)N1 [nitrofurantoin] | 11 | 1.3 | 2.9 | 2.9 | – | – | – | – | – | – | – | – | – |
| Cc1nnc(SCC2=C(C(=O)O)N3C(=O)[C@@H](NC(=O)Cn4cnnn4)[C@H]3SC2)s1 [cefazolin] | 23 | 15.5 | 12.2 | – | 19.7 | 10.7 | 32.0 | – | – | – | – | – | – |
| trimethoprim/sulfamethoxazole | 28 | 21.4 | 25.8 | 25.7 | – | – | – | greater than 40% | greater than 40% | 15 | highly susceptible | highly resistant | highly resistant |
| CC1(C)S[C@@H]2[C@H](NC(=O)[C@H](N)c3ccccc3)C(=O)N2[C@H]1C(=O)O [Ampicillin, ampicillin] | – | 44.7 | 55.6 | – | – | – | – | – | – | – | – | – | – |
| amoxicillin/clavulanate | 28 | 15.4 | 21.2 | 25.6 | – | – | – | – | – | – | – | – | – |
